The text below walks through data of ChEMBL document CHEMBL3886288, “Thieno[3,2-D]pyrimidine derivatives having inhibitory activity for protein kinases” (2015).

The structures appear in SMILES notation.

For assay [1], the target named is Macrophage colony-stimulating factor 1 receptor (Homo sapiens, UniProt P07333). The experiment in a line: Kinase Activity: The compounds prepared in Examples were tested for inhibitory activity against FMS, DDR1 and DDR2 kinases using Kinase Screening and Profiling Service (Invitrogen, U.S.).
Macrophage colony-stimulating factor 1 receptor, sequence (P07333 whole entry): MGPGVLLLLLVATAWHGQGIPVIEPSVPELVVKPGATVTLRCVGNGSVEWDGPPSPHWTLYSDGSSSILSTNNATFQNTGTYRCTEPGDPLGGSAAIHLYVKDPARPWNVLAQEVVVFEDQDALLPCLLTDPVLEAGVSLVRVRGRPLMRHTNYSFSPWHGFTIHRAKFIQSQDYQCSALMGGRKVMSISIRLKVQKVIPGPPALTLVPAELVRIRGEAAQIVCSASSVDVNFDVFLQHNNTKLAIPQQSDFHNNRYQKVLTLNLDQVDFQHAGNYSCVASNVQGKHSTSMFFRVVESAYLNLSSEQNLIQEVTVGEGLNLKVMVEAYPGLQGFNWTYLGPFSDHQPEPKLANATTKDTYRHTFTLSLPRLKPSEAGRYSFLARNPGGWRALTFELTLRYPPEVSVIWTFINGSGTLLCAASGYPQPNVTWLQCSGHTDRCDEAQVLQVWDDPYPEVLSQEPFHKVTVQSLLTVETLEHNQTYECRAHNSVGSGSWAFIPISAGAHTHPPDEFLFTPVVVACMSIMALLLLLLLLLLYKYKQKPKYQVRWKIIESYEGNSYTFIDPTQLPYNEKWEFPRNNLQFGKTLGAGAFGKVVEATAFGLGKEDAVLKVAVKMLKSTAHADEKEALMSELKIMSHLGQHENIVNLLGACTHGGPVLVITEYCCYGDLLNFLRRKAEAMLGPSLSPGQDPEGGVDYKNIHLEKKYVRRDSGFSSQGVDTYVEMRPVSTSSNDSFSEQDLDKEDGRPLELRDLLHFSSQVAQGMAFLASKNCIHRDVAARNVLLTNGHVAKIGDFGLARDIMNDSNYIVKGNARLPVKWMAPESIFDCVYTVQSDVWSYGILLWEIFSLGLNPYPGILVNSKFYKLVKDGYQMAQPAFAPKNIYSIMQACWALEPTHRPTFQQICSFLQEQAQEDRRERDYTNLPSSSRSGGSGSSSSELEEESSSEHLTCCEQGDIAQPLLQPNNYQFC
Assay [2] addresses Serine/threonine-protein kinase B-raf (Homo sapiens, UniProt P15056). The experiment in a line: (§1) Kinase Activity: The compounds prepared in Examples were tested for inhibitory activity against three subtypes of RAF, i.e., RAF1 Y340D Y341D (C-RAF), B-RAF normal type and B-RAF^V600E using Kinase Profiling Service (Invitrogen, U.S.) according to the manufacturer's instructions. The levels of enzymatic inhibition of the compounds were calculated as percent inhibition at various concentrations.

Assay [3] has as its target RAF proto-oncogene serine/threonine-protein kinase (Homo sapiens, UniProt P04049, Y340D/Y341D). The assay is described as §1.
Assay [4] addresses Serine/threonine-protein kinase B-raf (Homo sapiens, UniProt P15056, V600E). The description is as §1.

As usually defined, the IC50 is the concentration needed to halve the response being measured.

Serine/threonine-protein kinase B-raf (Homo sapiens, UniProt P15056, V600E), sequence (P15056 2-766 V600E limits assumed): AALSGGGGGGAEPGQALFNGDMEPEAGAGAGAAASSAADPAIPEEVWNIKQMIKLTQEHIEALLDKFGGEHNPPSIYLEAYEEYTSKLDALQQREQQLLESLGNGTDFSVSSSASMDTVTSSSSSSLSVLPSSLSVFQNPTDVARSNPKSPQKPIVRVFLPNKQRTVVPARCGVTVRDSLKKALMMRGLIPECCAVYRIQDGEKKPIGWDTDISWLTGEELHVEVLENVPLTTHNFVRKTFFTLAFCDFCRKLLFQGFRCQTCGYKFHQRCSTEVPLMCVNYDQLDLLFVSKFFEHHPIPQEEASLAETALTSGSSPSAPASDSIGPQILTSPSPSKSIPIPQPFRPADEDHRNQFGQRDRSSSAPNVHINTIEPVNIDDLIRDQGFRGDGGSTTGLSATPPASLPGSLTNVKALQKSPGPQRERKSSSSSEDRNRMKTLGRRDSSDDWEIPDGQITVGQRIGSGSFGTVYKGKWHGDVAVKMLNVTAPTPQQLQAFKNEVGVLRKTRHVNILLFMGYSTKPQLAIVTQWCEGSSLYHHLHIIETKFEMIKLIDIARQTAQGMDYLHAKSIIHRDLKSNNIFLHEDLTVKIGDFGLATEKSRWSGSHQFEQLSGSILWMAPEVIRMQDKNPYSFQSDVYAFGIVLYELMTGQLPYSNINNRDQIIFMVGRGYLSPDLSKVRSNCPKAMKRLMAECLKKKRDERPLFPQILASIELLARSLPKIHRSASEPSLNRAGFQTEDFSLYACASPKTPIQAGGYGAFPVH
Serine/threonine-protein kinase B-raf (Homo sapiens, UniProt P15056), sequence (P15056 whole entry): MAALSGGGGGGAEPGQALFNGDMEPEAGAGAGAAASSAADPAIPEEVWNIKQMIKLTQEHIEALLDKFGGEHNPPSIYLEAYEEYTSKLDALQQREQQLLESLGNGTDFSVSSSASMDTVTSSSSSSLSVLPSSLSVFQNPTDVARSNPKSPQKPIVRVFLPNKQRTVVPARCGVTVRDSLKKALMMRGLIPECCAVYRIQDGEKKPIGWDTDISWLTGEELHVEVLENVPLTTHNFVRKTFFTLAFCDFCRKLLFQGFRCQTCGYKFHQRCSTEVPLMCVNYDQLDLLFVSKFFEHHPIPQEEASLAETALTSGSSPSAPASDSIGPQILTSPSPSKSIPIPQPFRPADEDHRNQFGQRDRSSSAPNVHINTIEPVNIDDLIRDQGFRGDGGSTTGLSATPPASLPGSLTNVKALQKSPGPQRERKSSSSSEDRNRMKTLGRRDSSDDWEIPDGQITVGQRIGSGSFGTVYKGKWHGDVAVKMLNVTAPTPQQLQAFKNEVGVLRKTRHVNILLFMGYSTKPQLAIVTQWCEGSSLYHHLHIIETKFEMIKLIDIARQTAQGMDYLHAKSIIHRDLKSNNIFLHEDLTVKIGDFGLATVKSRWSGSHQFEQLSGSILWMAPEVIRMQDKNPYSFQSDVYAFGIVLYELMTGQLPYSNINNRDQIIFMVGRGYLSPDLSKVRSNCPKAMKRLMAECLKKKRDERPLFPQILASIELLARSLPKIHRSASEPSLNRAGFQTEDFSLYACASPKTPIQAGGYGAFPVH
RAF proto-oncogene serine/threonine-protein kinase, sequence (P04049 whole entry Y340D/Y341D): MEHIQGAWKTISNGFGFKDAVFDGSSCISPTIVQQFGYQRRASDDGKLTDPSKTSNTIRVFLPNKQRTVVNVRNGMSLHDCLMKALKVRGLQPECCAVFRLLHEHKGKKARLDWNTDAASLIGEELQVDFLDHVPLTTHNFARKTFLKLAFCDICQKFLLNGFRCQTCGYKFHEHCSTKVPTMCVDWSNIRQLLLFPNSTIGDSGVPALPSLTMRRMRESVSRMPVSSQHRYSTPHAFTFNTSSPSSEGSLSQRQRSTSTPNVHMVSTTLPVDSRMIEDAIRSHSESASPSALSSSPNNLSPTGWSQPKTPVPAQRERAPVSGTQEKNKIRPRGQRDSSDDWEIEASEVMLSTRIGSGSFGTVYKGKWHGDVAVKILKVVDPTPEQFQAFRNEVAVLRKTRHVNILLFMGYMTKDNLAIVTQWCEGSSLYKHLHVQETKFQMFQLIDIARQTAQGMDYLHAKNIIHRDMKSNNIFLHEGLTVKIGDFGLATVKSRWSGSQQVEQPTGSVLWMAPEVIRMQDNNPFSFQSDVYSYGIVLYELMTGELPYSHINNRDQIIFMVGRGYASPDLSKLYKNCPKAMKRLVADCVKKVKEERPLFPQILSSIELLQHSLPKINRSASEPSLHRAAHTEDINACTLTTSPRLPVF

In the case of `Cc1ccc2c(Nc3cccc(Cl)c3)nccc2c1NC(=O)c1csc2c(N)ncnc12`, the IC50 in assay [1] was 57 nM; in assay [2], 66 nM; in assay [3], 5 nM; in assay [4], 9 nM.
